Results taken from ChEMBL document CHEMBL4033707, “Discovery of a novel aminopyrazine series as selective PI3Kα inhibitors” (Bioorg Med Chem Lett, 2017).
≈ marks a conversion by molar mass, not a printed value. One block for each compound: values may come before it. Calls of active or inactive are those of the source. The calls are words filed in the database; no cut-off is given here.

Experiments:
[1] = Inhibition of PI3Kalpha mutant in human BT474 cells assessed as reduction in AKT phosphorylation at Thr308; assay type: cell-based; conditions: BT-474
[2] = target: T1, Phosphatidylinositol 4,5-bisphosphate 3-kinase catalytic subunit beta isoform (Homo sapiens, UniProt P42338); test: Inhibition of PI3Kbeta in PTEN-deficient human MDA-MB-468 cells assessed as reduction in AKT phosphorylation at Ser473
[3] = target: Phosphatidylinositol 4,5-bisphosphate 3-kinase catalytic subunit alpha isoform (Homo sapiens, UniProt P42336); test: Inhibition of PI3Kalpha (unknown origin)
[4] = target: T1, Phosphatidylinositol 4,5-bisphosphate 3-kinase catalytic subunit beta isoform; test: Inhibition of PI3Kbeta (unknown origin)
[5] = Aqueous solubility of the compound in phosphate buffer at pH 7.4 using crystalline sample; assay type: physicochemical
[6] = Dissociation constant, pKa of the compound; assay type: physicochemical
[7] = Octanol-buffer partition coefficient, log D of the compound at pH 7.4 by shake-flask method; assay type: physicochemical
[8] = Apparent permeability of the compound across apical side to basolateral side in human Caco2 cells; assay type: ADME, cell-based; conditions: Caco-2
[9] = Clearance in Han Wistar rat at 4 umol/kg, iv or 10 umol/kg, po; assay type: ADME, organism-based; conditions: in vivo
[10] = Volume of distribution in Han Wistar rat at 4 umol/kg, iv or 10 umol/kg, po; assay type: ADME, organism-based; conditions: in vivo
[11] = Oral bioavailability in Han Wistar rat at 10 umol/kg; assay type: ADME, organism-based; conditions: in vivo
[12] = Clearance in Beagle dog at 1 umol/kg, po; assay type: ADME, Canis lupus familiaris; conditions: in vivo
Canis familiaris = test: Volume of distribution in Beagle dog at 1 umol/kg, po; assay type: ADME, Canis lupus familiaris; conditions: in vivo
[13] = Oral bioavailability in Beagle dog at 1 umol/kg; assay type: ADME, organism-based, Canis lupus familiaris; conditions: in vivo
[14] = AUC in mouse at 100 mg/kg, po; assay type: ADME, organism-based; conditions: in vivo
[15] = Cmax in mouse at 100 mg/kg, po; assay type: ADME, organism-based; parameters: dose 100 mg/kg, route oral; conditions: in vivo
MCF7 [16] = test: Anti-tumor activity against human MCF7 cells harboring PI3KCA E545K mutant xenografted in Swiss nu/nu mouse assessed as tumor growth inhibition at 50 mg/kg, po administered twice daily for 21 days measured post last dose relative to control; assay type: functional; conditions: 504 h, read-out: TGI
MCF7 [17] = test: Anti-tumor activity against human MCF7 cells harboring PI3KCA E545K mutant xenografted in Swiss nu/nu mouse assessed as tumor growth inhibition at 25 mg/kg, po administered twice daily for 21 days measured post last dose relative to control; assay type: functional; conditions: 504 h, read-out: TGI
MCF7 [18] = test: Anti-tumor activity against human MCF7 cells harboring PI3KCA E545K mutant xenografted in Swiss nu/nu mouse assessed as tumor growth inhibition at 10 mg/kg, po administered twice daily for 21 days measured post last dose relative to control; assay type: functional; conditions: 504 h, read-out: TGI
[19] = target: T2, Phosphatidylinositol 4,5-bisphosphate 3-kinase catalytic subunit gamma isoform (Homo sapiens, UniProt P48736); test: Inhibition of PI3Kgamma (unknown origin)
[20] = target: Phosphatidylinositol 4,5-bisphosphate 3-kinase catalytic subunit delta isoform (Homo sapiens, UniProt O00329); test: Inhibition of PI3Kdelta (unknown origin)
[21] = target: Phosphatidylinositol 4-kinase beta (Homo sapiens, UniProt Q9UBF8); test: Inhibition of human PI4KB (1 to 801 residues) by ADP Glo HTS assay
[22] = target: Phosphoinositide 3-kinase regulatory subunit 4 (Homo sapiens, UniProt Q99570); test: Inhibition of VPS15 (unknown origin)
[23] = target: Serine/threonine-protein kinase mTOR (Homo sapiens, UniProt P42345); test: Inhibition of m-TOR (unknown origin)
[24] = target: Choline kinase alpha (Homo sapiens) (UniProt P35790); test: Inhibition of human CHKalpha (1 to 457 residues) at 50 uM by ADP Glo HTS assay
[25] = target: Choline/ethanolamine kinase (Homo sapiens) (UniProt Q9Y259); test: Inhibition of human CHKbeta (1 to 395 residues) at 50 uM by ADP Glo HTS assay
[26] = target: Diacylglycerol kinase beta (Homo sapiens) (UniProt Q9Y6T7); test: Inhibition of human DGKbeta (1 to 804 residues) at 50 uM by ADP Glo HTS assay
[27] = target: Diacylglycerol kinase gamma (Homo sapiens) (UniProt P49619); test: Inhibition of human DGKgamma (1 to 752 residues) at 50 uM by ADP Glo HTS assay
[28] = target: Diacylglycerol kinase zeta (Homo sapiens) (UniProt Q13574); test: Inhibition of human DGKzeta (1 to 929 residues) at 50 uM by ADP Glo HTS assay
[29] = target: Phosphatidylinositol 3-kinase regulatory subunit alpha (Homo sapiens) (UniProt P27986); test: Inhibition of human PI3K p85alpha (1 to 724 residues) at 50 uM by ADP Glo HTS assay
[30] = system: Phosphatidylinositol 4,5-bisphosphate 3-kinase catalytic subunit alpha isoform (Homo sapiens), P42336 [E542K]; test: Inhibition of human PI3Kalpha (2 to 1068 residues)/p85 (1 to 724 residues) E542K mutant at 50 uM by ADP Glo HTS assay
[31] = system: Phosphatidylinositol 4,5-bisphosphate 3-kinase catalytic subunit alpha isoform (Homo sapiens), P42336 [E545K]; test: Inhibition of human PI3Kalpha (2 to 1068 residues)/p85 (1 to 724 residues) E545K mutant at 50 uM by ADP Glo HTS assay
[32] = target: Sphingosine kinase 1 (Homo sapiens) (UniProt Q9NYA1); test: Inhibition of human SphK1 (1 to 384 residues) at 50 uM by […] HTS assay
[33] = target: Phosphatidylinositol 3-kinase regulatory subunit beta (Homo sapiens) (UniProt O00459); test: Inhibition of human PI3K p85beta (1 to 724 residues) at 50 uM by ADP Glo HTS assay
[34] = target: T2, Phosphatidylinositol 4,5-bisphosphate 3-kinase catalytic subunit gamma isoform; test: Inhibition of human PI3Kgamma (2 to 1102 residues) at 50 uM by ADP Glo HTS assay
[35] = target: Sphingosine kinase 2 (Homo sapiens) (UniProt Q9NRA0); test: Inhibition of human SPHK 2 (1 to 654 residues) at 50 uM by ADP Glo HTS assay
[36] = Aqueous solubility of the compound in phosphate buffer at pH 7.4; assay type: physicochemical

T1 sequence (P42338 whole entry, canonical isoform): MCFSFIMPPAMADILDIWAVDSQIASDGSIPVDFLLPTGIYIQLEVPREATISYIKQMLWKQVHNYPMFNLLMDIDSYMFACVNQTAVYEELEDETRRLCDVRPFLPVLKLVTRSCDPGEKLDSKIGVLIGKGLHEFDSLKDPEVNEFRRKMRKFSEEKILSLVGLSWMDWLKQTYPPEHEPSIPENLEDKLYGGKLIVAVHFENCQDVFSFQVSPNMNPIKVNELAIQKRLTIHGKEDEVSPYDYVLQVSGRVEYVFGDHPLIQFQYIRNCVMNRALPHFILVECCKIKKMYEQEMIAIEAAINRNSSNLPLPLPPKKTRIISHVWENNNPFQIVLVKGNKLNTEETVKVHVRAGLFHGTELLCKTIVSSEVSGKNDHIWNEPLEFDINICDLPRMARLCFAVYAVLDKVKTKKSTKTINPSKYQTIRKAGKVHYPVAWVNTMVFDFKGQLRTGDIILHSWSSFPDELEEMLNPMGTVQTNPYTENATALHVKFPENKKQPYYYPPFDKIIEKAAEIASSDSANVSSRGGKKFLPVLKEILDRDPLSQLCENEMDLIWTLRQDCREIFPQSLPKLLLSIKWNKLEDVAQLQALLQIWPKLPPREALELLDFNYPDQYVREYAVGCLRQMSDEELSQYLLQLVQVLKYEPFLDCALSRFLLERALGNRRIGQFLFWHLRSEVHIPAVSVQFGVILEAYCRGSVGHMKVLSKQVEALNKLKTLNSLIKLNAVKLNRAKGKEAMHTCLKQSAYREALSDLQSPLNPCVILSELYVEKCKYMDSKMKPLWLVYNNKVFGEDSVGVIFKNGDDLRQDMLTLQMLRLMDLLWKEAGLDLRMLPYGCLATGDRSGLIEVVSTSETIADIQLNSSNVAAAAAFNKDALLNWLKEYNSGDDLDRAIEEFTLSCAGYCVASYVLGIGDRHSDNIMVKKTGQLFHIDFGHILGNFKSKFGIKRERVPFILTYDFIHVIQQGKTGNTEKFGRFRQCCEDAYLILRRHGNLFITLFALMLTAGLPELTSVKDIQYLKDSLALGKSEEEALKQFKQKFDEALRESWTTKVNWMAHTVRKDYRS
Sequence of Phosphatidylinositol 4,5-bisphosphate 3-kinase catalytic subunit alpha isoform (P42336 whole entry, canonical isoform): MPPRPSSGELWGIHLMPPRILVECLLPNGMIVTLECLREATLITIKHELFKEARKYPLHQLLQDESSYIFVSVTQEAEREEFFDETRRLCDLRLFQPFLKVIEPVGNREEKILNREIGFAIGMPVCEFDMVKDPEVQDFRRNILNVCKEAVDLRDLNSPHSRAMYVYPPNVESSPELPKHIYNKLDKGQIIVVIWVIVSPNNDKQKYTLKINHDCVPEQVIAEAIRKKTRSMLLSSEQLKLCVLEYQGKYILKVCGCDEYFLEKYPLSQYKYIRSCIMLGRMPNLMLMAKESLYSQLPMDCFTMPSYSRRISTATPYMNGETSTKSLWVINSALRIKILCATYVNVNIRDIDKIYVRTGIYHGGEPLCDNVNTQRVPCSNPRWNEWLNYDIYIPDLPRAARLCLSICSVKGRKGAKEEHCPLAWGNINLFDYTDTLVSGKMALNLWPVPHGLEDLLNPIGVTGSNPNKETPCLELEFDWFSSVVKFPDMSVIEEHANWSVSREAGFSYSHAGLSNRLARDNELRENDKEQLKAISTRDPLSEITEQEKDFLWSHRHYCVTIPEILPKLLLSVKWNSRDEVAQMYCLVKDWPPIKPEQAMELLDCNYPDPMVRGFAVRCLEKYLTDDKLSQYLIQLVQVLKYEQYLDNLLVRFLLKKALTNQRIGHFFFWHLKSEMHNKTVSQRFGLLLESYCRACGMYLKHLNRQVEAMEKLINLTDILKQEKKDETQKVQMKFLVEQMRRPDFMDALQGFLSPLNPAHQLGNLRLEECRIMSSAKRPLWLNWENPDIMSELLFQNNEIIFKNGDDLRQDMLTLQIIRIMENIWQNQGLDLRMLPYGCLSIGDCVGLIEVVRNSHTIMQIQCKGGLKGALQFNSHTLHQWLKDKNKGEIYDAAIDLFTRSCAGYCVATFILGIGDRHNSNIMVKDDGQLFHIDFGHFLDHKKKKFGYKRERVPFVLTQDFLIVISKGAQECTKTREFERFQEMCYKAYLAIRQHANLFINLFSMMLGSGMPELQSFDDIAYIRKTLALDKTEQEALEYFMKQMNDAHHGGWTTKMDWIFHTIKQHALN
Sequence of Diacylglycerol kinase gamma (Homo sapiens) (P49619 whole entry, the tested form may be a part): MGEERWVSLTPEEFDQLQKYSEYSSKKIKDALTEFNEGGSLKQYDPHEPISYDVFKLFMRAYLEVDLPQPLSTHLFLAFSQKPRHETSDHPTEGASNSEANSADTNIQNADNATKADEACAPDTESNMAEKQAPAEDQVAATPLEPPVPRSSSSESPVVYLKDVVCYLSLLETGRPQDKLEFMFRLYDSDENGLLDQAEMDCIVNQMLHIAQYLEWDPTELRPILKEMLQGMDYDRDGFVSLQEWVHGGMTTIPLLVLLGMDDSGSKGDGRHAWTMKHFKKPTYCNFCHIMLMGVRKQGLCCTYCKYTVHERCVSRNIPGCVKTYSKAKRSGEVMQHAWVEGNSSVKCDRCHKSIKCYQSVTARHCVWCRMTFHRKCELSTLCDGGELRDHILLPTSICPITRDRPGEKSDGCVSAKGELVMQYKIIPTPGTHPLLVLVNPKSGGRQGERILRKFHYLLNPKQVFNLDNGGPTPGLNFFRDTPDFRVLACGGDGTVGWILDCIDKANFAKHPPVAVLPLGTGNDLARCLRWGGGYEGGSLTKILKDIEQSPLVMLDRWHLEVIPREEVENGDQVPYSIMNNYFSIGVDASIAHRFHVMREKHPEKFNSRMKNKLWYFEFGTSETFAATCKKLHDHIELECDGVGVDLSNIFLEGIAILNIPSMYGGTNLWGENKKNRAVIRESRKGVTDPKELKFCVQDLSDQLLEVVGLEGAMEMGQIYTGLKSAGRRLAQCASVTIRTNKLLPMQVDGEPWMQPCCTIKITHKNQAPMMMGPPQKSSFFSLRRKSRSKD
Sequence of Phosphatidylinositol 4,5-bisphosphate 3-kinase catalytic subunit delta isoform (O00329 whole entry, the tested form may be a part, canonical isoform): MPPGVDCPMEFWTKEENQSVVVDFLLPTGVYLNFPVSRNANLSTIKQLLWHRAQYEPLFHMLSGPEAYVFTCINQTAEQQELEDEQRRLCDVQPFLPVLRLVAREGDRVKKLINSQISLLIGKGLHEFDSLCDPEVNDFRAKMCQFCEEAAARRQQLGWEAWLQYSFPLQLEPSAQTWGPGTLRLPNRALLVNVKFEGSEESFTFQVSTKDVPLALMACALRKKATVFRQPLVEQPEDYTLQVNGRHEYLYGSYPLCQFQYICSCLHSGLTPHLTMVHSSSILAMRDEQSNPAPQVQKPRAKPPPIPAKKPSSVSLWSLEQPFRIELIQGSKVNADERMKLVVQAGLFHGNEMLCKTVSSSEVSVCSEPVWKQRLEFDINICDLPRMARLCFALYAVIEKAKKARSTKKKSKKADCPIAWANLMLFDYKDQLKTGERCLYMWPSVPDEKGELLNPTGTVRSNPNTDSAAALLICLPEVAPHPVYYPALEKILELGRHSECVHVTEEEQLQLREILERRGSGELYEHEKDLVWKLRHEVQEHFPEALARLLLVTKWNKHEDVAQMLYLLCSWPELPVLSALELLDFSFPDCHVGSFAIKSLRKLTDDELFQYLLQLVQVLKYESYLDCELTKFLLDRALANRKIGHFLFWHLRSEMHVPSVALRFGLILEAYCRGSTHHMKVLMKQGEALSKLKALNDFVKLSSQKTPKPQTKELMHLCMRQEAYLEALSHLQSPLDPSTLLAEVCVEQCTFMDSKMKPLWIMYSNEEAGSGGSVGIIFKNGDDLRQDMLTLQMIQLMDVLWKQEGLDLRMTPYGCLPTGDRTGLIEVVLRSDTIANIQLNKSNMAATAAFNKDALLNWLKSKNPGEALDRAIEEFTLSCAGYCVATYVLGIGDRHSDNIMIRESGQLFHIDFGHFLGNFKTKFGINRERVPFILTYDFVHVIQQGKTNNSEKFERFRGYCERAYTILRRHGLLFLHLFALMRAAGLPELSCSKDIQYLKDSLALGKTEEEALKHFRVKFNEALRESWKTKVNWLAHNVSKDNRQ
Sequence of Phosphatidylinositol 4,5-bisphosphate 3-kinase catalytic subunit alpha isoform (Homo sapiens), P42336 [E545K] (P42336 whole entry E545K, the tested form may be a part, canonical isoform): as the sequence (P42336 whole entry, canonical isoform) above, with E545K counted along it

solubility thermodynamic [5]: 26 µM (≈ 9.45 µg/mL) | IC50 [3]: 6 nM | IC50 [4]: 87 to 540 nM | IC50 [1]: 87 nM | IC50 [2]: 8400 nM | pKa [6]: 6.2 | logD [7]: 1.8 | Papp A→B [8]: 6 ×10⁻⁶ cm/s | clearance [9]: 11 mL/min/kg | Vd [10]: 0.9 L/kg | bioavailability [11]: 46% | CL/F [12]: 19 mL/min/kg | Vd (Canis familiaris): 0.8 L/kg | bioavailability [13]: 60% | AUC [14]: 36.2 µM·h | Cmax [15]: 18 µM | IC50 [19]: 43 nM | IC50 [20]: 16 nM | IC50 [21]: 2800 nM | IC50 [22]: 16000 nM | IC50 [23]: 29000 nM | inhibition [24]: inactive | inhibition [25]: inactive | inhibition [26]: inactive | inhibition [27]: inactive | inhibition [28]: inactive | inhibition [29]: inactive | inhibition [30]: inactive | inhibition [31]: inactive | inhibition [32]: inactive | inhibition [33]: inactive | inhibition [34]: inactive | inhibition [35]: inactive
Structure (SMILES): CNC(=O)c1nc(-c2nc(-c3cnc4ccccn34)c(C)nc2N)n(C)n1
inhibition in vivo at 50 mg/kg (MCF7 [16]): 86% | inhibition in vivo at 25 mg/kg (MCF7 [17]): 44% | inhibition in vivo at 10 mg/kg (MCF7 [18]): 29%

IC50 [1]: 22 nM | IC50 [2]: 16000 nM
Structure (SMILES): CO[C@H]1CC[C@H](NC(=O)c2nc(-c3nc(-c4cnc5ccccn45)c(C)nc3N)n(C)n2)CC1

IC50 [3]: 20 nM | IC50 [4]: 1300 nM | IC50 [1]: 380 nM | IC50 [2]: 21000 nM
Structure (SMILES): CNC(=O)c1nc(-c2nc(-c3cnc4ccccn34)cnc2N)n(C)n1

IC50 [3]: < 10 nM | IC50 [4]: 24 to 180 nM | IC50 [1]: 24 nM | IC50 [2]: 1500 nM | pKa [6]: 2.3 | logD [7]: 2.3 | solubility [36]: 7 µM (≈ 2.54 µg/mL) | Papp A→B [8]: 36 ×10⁻⁶ cm/s | clearance [9]: 27 mL/min/kg | Vd [10]: 0.8 L/kg | bioavailability [11]: 9%
Structure (SMILES): CNC(=O)c1nc(-c2nc(-c3cnn4ccccc34)c(C)nc2N)n(C)n1

Further lines, the compound ahead of its results:

Structure (SMILES): Cc1nc(N)c(-c2nc(C(=O)NCCN(C)C)nn2C)nc1-c1cnn2ccccc12
IC50 [1]: 6 nM | IC50 [2]: 1500 nM

Structure (SMILES): Cc1nc(N)c(-c2cnn(C3CCN(C)CC3)n2)nc1-c1cnc2ccccn12
IC50 [3]: 8 nM | IC50 [4]: 76 nM | IC50 [1]: 100 nM | IC50 [2]: 550 nM

Structure (SMILES): Cc1nc(N)c(-c2nc(C3CCN(C)CC3)nn2C)nc1-c1cnc2ccccn12
IC50 [3]: 5 nM | IC50 [4]: 32 nM | IC50 [1]: 49 nM | IC50 [2]: 200 nM

Structure (SMILES): CN(C)CC(=O)N1CCC(n2cc(-c3cnc(N)c(-n4nnc5ccccc54)n3)cn2)CC1
IC50 [1]: 58 nM
